Paper PMC3676778, “The Effect of the Aerial Part of Lindera akoensis on Lipopolysaccharides (LPS)-Induced Nitric Oxide Production in RAW264.7 Cells” (International Journal of Molecular Sciences, 2013)

What was measured:
Type in all cases: cell-based, murine
[1] = test system: LPS-stimulated production of nitric oxide (NO) in RAW 264.7 cell; assay: Inhibition of LPS-induced NO (nitrite) production in RAW264.7 cells, Griess reaction; conditions: RAW 264.7 cells, LPS 100 ng/mL, 24 h, nitrite by Griess, mean ± SD of three replicates
Excerpt: NO, produced from L-arginine by NO synthase, has various biological actions, e.g., as a defense and regulatory molecule for homeostatic equilibrium. However, in pathophysiologic conditions, such as inflammation, there is an increased production of NO by inducible NO synthase (iNOS). Macrophages have been expected to be an origin of inflammation, because they contain various chemical mediators that may be responsible for several inflammatory stages. The inhibitory activity toward NO production, induced by lipopolysaccharides (LPS), by murine macrophage-derived RAW264.7 cells, was assayed.
(§1) A murine macrophage cell line RAW264.7 (BCRC No. 60001) was purchased from the Bioresources Collection and Research Center (BCRC) of the Food Industry Research and Development Institute (Hsinchu, Taiwan). Cells were cultured in plastic dishes containing Dulbecco’s Modified Eagle Medium (DMEM, Sigma, St. Louis, MO, USA) supplemented with 10% fetal bovine serum (FBS, Sigma, St. Louis, MO, USA, USA) in a CO2 incubator (5% CO2 in air) at 37 °C and subcultured every 3 days at a dilution of 1:5 using 0.05% trypsin-0.02% EDTA in Ca^2+-, Mg^2+-free phosphate-buffered saline (DPBS).
NO production was indirectly assessed by measuring the nitrite levels in the cultured media and serum determined by a colorimetric method based on the Griess reaction. The cells were incubated with butanolides (0, 3.125, 6.25, 12.5, 25 and 50 μg/mL) in the presence of LPS (100 ng/mL) at 37 °C for 24 h. Then, cells were dispensed into 96-well plates, and 100 μL of each supernatant was mixed with the same volume of Griess reagent (1% sulfanilamide, 0.1% naphthyl ethylenediamine dihydrochloride and 5% phosphoric acid) and incubated at room temperature for 10 min; the absorbance was measured at 540 nm with a Micro-Reader (Molecular Devices Orleans Drive, Sunnyvale, CA, USA). Serum samples were diluted four times with distilled water and deproteinized by adding 1/20 volume of zinc sulfate (300 g/L) to a final concentration of 15 g/L. After centrifugation at 10,000× g for 5 min at room temperature, 100 μL supernatant was applied to a microtiter plate well, followed by 100 μL of Griess reagent. After 10 min of color development at room temperature, the absorbance was measured at 540 nm with a Micro-Reader. By using sodium nitrite to generate a standard curve, the concentration of nitrite was measured form absorbance at 540 nm.
(§2) IC50 values were estimated using a non-linear regression algorithm (SigmaPlot 8.0; SPSS Inc., Chicago, IL, USA, 2002). Statistical evaluation was carried out by one-way analysis of variance (ANOVA followed by Scheffe’s multiple range tests).

[2] = Cell viability (MTT) of RAW264.7 cells in the presence of LPS; conditions: mouse, RAW264.7 macrophage cells, RAW 264.7 cells, 100 ng/mL LPS, mean ± SD of three replicates, read-out: Cytotoxicity IC50
Method: as §1
(§3) Cells (2 × 105) were cultured in 96-well plate containing DMEM supplemented with 10% FBS for 1 day to become nearly confluent. Then cells were cultured with compounds 1–5 in the presence of 100 ng/mL LPS (lipopolysaccharide) for 24 h. After that, the cells were washed twice with DPBS and incubated with 100 μL of 0.5 mg/mL MTT for 2 h at 37 °C testing for cell viability. The medium was then discarded, and 100 μL dimethyl sulfoxide (DMSO) was added. After 30-min incubation, the absorbance at 570 nm was read using a microplate reader (Molecular Devices, Sunnyvale, CA, USA).
as §2

[3] = test system: RAW264.7 cells; assay: as above; conditions: RAW 264.7 cells, 100 ng/mL LPS, 24 h, mean ± SD of three replicates, read-out: Cytotoxicity IC50
Method: as §1, §3, §2

## CCCCCCCCCC/C=C/[C@@H]1C(=O)O[C@@H](C)[C@H]1O [Compound 1, 3α-((E)-Dodec-1-enyl)-4β-hydroxy-5β-methyldihydrofuran-2-one]
[1]; Mus musculus, RAW264.7
  IC50: 20.1 ± 0.3 µM
[2]
  IC50 at 24 h: 78 ± 5.1 µM

## CCCCCCCCCCC/C=C1\C(=O)O[C@@H](C)[C@H]1O [Compound 2, 3-epilistenolide D1]
[1]; Mus musculus, RAW264.7
  IC50: 4.1 ± 0.1 µM
[2]
  IC50 at 24 h: 32.6 ± 0.5 µM

## CCCCCCCCCCC/C=C1/C(=O)O[C@@H](C)[C@H]1O [Compound 3, 3-epilistenolide D2]
[1]; Mus musculus, RAW264.7
  IC50: 4.5 ± 0.1 µM
[2]
  IC50 at 24 h: 27.7 ± 1.6 µM

## C#CCCCCCCCCC/C=C1\C(=O)O[C@@H](C)[C@@H]1O [Compound 4, (3Z,4α,5β)-3-(dodec-11-ynylidene)-4-hydroxy-5-methylbutanolide]
[1]; Mus musculus, RAW264.7
  IC50: 21.7 ± 0.4 µM
[2]
  IC50 at 24 h: 139 ± 2.8 µM

## C#CCCCCCCCCC/C=C1/C(=O)O[C@@H](C)[C@H]1O [Compound 5, (3E,4β,5β)-3-(dodec-11-ynylidene)-4-hydroxy-5-methylbutanolide]
[1]; Mus musculus, RAW264.7
  IC50: 33.4 ± 1 µM
[2]
  IC50 at 24 h: 143 ± 1.9 µM

## COc1cc(CC2COCC2Cc2ccc3c(c2)OCO3)ccc1O (stereo not shown) [Compound 6, linderinol]
[1]; Mus musculus, RAW264.7
  IC50: 196 ± 4 µM
[2]
  IC50 at 24 h: > 292 µM

## COc1cc(C[C@H]2COC(=O)[C@@H]2Cc2ccc(O)c(OC)c2)ccc1O [Compound 7, matairesinol]
[1]; Mus musculus, RAW264.7
  IC50: 179 ± 12.1 µM
[2]
  IC50 at 24 h: > 279 µM

## COc1cc([C@H]2OC[C@H]3[C@@H]2CO[C@@H]3c2cc(OC)c(O)c(OC)c2)cc(OC)c1O [Compound 8, syringaresinol]
[1]; Mus musculus, RAW264.7
  IC50: 49.7 ± 4.5 µM
[2]
  IC50 at 24 h: > 239 µM

## COc1cc(C2OCC3C(=O)OCC32)ccc1O (stereo not shown) [Compound 10, salicifoliol]
[1]; Mus musculus, RAW264.7
  IC50: 312 ± 14.1 µM
[2]
  IC50 at 24 h: > 400 µM

## COc1ccc(-c2oc3cc(O)cc(O)c3c(=O)c2OC2OC(C)C(OC(=O)C=Cc3ccc(O)cc3)C(O)C2O)cc1 [Compound 11, 4′-O-methylkaempferol 3-O-α-L-(4″-E-p-coumaroyl)rhamnoside]
[1]; Mus musculus, RAW264.7
  IC50: 62.5 ± 2.2 µM
[2]
  IC50 at 24 h: > 84.5 µM

## C[C@@H]1O[C@@H](Oc2c(-c3ccc(O)cc3)oc3cc(O)cc(O)c3c2=O)[C@H](O)[C@H](O)[C@H]1OC(=O)/C=C\c1ccc(O)cc1 [Compound 12, kaempferol 3-O-α-L-(4″-Z-p-coumaroyl) rhamnoside]
[1]; Mus musculus, RAW264.7
  IC50: 67.9 ± 1.9 µM
[2]
  IC50 at 24 h: > 86.5 µM

## C[C@@H]1O[C@@H](Oc2c(-c3ccc(O)cc3)oc3cc(O)cc(O)c3c2=O)[C@H](O)[C@H](O)[C@H]1OC(=O)/C=C/c1ccc(O)cc1 [Compound 13, 4″-p-coumaroylafzelin]
[1]; Mus musculus, RAW264.7
  IC50: 76.9 ± 7.3 µM
[2]
  IC50 at 24 h: > 86.5 µM

## Oc1cc(O)c2c(c1)O[C@H](c1ccc(O)c(O)c1)[C@@H](O)C2 [Compound 14, catechin]
[1]; Mus musculus, RAW264.7
  IC50: 414 ± 6.9 µM
[2]
  IC50 at 24 h: > 517 µM

## Oc1cc(O)c2c(c1)O[C@H](c1ccc(O)c(O)c1)[C@H](O)C2 [Compound 15, epicatechin]
[1]; Mus musculus, RAW264.7
  IC50: 352 ± 37.4 µM
[2]
  IC50 at 24 h: > 517 µM

## COc1ccc2c(c1)c(CC(=O)O)c(C)n2C(=O)c1ccc(Cl)cc1 [indomethacin, reference compound]
[1]; Mus musculus, RAW264.7
  IC50: 183 ± 5.5 µM

## (+)-pinoresinol [Compound 9]
[1]
  IC50: 90.4 ± 8.6 µM
[3]
  IC50: > 279 µM
